Like-named read-outs stand apart in the source and are kept apart here. Bounds are passed on as bounds.

One data set addresses SOS1 (Homo sapiens (Human), UniProt Q07889). The data set can be described thus: Ras-SOS interaction assay (HTRF). The data set is classed as biochemical. Background: In TR-FRET formats the signal depends on donor and acceptor labels being close together.
The nature of data set [1]: Metabolic (microsomal) stability assay. The class given is in vitro ADME. The note with it: mouse liver microsomes, T1/2; read-out: DMPK-invitro-metabolic Stability (Mouse T1/2). An excerpt: Example 12: Metabolic (Microsomal) Stability Assay
Data set [2] has as its system MIA PaCa-2 cells (K-Ras G12C). The data set can be described thus: Ras-SOS cellular growth inhibition assay (CellTiter-Glo, 3D). The class given is cell-based. Conditions: Homo sapiens. The gist of the method:
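MIA PaCa-2 cells grown in ultra-low-attachment plates (3D) in DMEM/Ham's F12 with 10% FCS and 2.5% horse serum, treated the day after seeding with a 9-point 3-fold compound series for about 5 days. Viability by CellTiter-Glo luminescence; IC50 from four-parameter fit.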
(In general: ATP-based viability assays read luminescence as a measure of living cells.)

In data set [3] the test system is NCI-H1975 cells (EGFR T790M L858R). The data set can be described thus: EGFR-SOS cellular inhibition assay (CellTiter-Glo, 3D). The note with it: Homo sapiens. The data set is classed as cell-based.
The mark [4] stands for this setting: K-RasG13D utilized, read-out: IC50 inhibition of SOS.
[5] abbreviates: K-RasG13D, read-out: IC50 value against SOS1.
The mark [6] stands for this setting: MIA PaCa-2, 120 h, MIA PaCa-2, 3D proliferation, about 5 days, read-out: Bio-Cell-Prolif-3D (MiaPaca2 IC50).
[7] abbreviates: MIA PaCa-2, MIA PaCa-2, read-out: IC50 in inhibiting MIA PaCa-2 cell growth.
Where [8] appears, read: 120 h, NCI-H1975, 3D proliferation, about 5 days, read-out: Bio-Cell-Prolif-3D (H1975 IC50).
[9] abbreviates: NCI-H1975, EGFR T790M L858R, read-out: IC50 in inhibiting growth of NCI-H1975 cell line.

Chain of SOS1 (Q07889 564-1049): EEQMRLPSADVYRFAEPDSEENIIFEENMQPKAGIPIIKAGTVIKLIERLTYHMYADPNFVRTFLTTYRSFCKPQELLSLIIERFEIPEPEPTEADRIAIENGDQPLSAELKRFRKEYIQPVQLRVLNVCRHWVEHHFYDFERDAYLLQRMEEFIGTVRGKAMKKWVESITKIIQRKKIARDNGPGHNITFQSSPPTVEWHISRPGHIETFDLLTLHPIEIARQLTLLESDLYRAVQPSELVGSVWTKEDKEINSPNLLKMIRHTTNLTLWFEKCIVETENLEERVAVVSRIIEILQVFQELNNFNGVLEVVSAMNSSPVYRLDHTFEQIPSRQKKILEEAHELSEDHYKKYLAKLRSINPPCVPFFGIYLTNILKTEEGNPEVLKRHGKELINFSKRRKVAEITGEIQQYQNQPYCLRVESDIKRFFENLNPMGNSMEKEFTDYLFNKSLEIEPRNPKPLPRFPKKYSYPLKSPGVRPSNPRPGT

One may read the IC50 as the concentration that gives 50% inhibition. On to `Cc1nc(N[C@H](C)c2cccc(C(F)(F)CO)c2F)c2cc(C3(C#N)CC3)c(Cl)nc2n1` [Compound 195, (R)-1-(7-chloro-4-((1-(3-(1,1-difluoro-2-hydroxyethyl)-2-fluorophenyl)ethyl)amino)-2-methylpyrido[2,3-d]pyrimidin-6-yl)cyclopropane-1-carbonitrile], for which the IC50 at SOS1 (setting [4]) was < 0.1 µM; at SOS1 (setting [5]), < 0.05 µM; in data set [2] (setting [6]) it was ≤ 1 µM; in data set [2] (setting [7]), < 0.5 µM; in data set [3] (setting [8]), ≤ 1 µM. Also, the half-life in data set [1] is 21.1 min.
With `C[C@@H](Nc1ncnc2nc(Cl)c(C3(C#N)CC3)cc12)c1cccc(C(F)F)c1F` [Compound 200, (R)-1-(7-chloro-4-((1-(3-(difluoromethyl)-2-fluorophenyl)ethyl)amino)pyrido[2,3-d]pyrimidin-6-yl)cyclopropane-1-carbonitrile], the IC50 on SOS1 (setting [4]) was < 0.1 µM; on SOS1 (setting [5]), < 0.05 µM; in data set [2] (setting [6]), ≤ 1 µM; in data set [3] (setting [8]) it was ≤ 1 µM; in data set [3] (setting [9]) it was < 0.5 µM. For the same molecule, the half-life in data set [1] was determined as 154 min.
On to `C[C@@H](Nc1ncnc2nc(Cl)c(C3(C#N)CC3)cc12)c1cccc(C(F)(F)[C@@H](C)O)c1` [Compound 214, 1-(7-chloro-4-(((R)-1-(3-((R)-1,1-difluoro-2-hydroxypropyl)phenyl)ethyl)amino)pyrido[2,3-d]pyrimidin-6-yl) cyclopropane-1-carbonitrile], for which the IC50 at SOS1 (setting [4]) was < 0.1 µM; at SOS1 (setting [5]) it was < 0.05 µM; in data set [2] (setting [6]), ≤ 1 µM; in data set [2] (setting [7]) it was < 0.5 µM; in data set [3] (setting [8]), ≤ 1 µM; in data set [3] (setting [9]), < 0.5 µM. Also, in data set [1], the half-life is > 200 min.
With `Cc1nc(N[C@H](C)c2cccc(C(F)(F)[C@@H](C)O)c2)c2cc(C3(C#N)CC3)c(Cl)nc2n1` [Compound 219, 1-(7-chloro-4-(((R)-1-(3-((R)-1,1-difluoro-2-hydroxypropyl)phenyl)ethyl)amino)-2-methylpyrido[2,3-d]pyrimidin-6-yl)cyclopropane-1-carbonitrile], the IC50 at SOS1 (setting [4]) is < 0.1 µM; on SOS1 (setting [5]), < 0.05 µM; in data set [2] (setting [6]) it was ≤ 1 µM; in data set [2] (setting [7]), < 0.5 µM; in data set [3] (setting [8]), ≤ 1 µM; in data set [3] (setting [9]), < 0.5 µM. For the same molecule, the half-life in data set [1] was 99 min.
For the molecule `Cc1nc(N[C@H](C)c2cccc(C(F)(F)[C@H](C)O)c2)c2cc(C3(C#N)CC3)c(Cl)nc2n1` [Compound 220, 1-(7-chloro-4-(((R)-1-(3-((S)-1,1-difluoro-2-hydroxypropyl)phenyl)ethyl)amino)-2-methylpyrido[2,3-d]pyrimidin-6-yl)cyclopropane-1-carbonitrile], the concentration for half-maximal inhibition (IC50) is < 0.1 µM on SOS1 (setting [4]); < 0.05 µM on SOS1 (setting [5]); ≤ 1 µM in data set [2] (setting [6]); < 0.5 µM in data set [2] (setting [7]); ≤ 1 µM in data set [3] (setting [8]); < 0.5 µM in data set [3] (setting [9]). The half-life in data set [1] worked out at 100 min.
With `Cc1nc(N[C@H](C)c2cccc(C(F)F)c2F)c2cc(C3(C#N)CC3)c(OC3CN(C)C3)nc2n1` [Compound 234, (R)-1-(4-((1-(3-(difluoromethyl)-2-fluorophenyl)ethyl)amino)-2-methyl-7-((1-methylazetidin-3-yl)oxy)pyrido[2,3-d]pyrimidin-6-yl)cyclopropane-1-carbonitrile], the half-inhibitory concentration (IC50) at SOS1 (setting [4]) is < 0.1 µM; on SOS1 (setting [5]), < 0.05 µM; in data set [2] (setting [6]), ≤ 1 µM; in data set [3] (setting [8]), ≤ 1 µM; in data set [3] (setting [9]), < 0.5 µM. The half-life in data set [1] is 42.2 min.
Turning to `Cc1nc(N[C@H](C)c2cccc(C(F)F)c2F)c2cc(C3(C#N)CC3)c(O[C@@H]3CCOC3)nc2n1` [Compound 298, 1-(4-(((R)-1-(3-(difluoromethyl)-2-fluorophenyl)ethyl)amino)-2-methyl-7-(((R)-tetrahydrofuran-3-yl)oxy)pyrido[2,3-d]pyrimidin-6-yl)cyclopropane-1-carbonitrile], the IC50 was 0.1 to 1 µM on SOS1 (setting [4]), ≤ 1 µM in data set [2] (setting [6]) and ≤ 1 µM in data set [3] (setting [8]). The half-life in data set [1] turned out to be 1.5 min.
Regarding `Cc1nc(N[C@H](C)c2cccc(C(F)F)c2F)c2cc(C3(C#N)CC3)c(Cl)nc2n1` [Compound 352, (R)-1-(7-chloro-4-((1-(3-(difluoromethyl)-2-fluorophenyl)ethyl)amino)-2-methylpyrido[2,3-d]pyrimidin-6-yl)cyclopropane-1-carbonitrile], the IC50 at SOS1 (setting [4]) was < 0.1 µM; at SOS1 (setting [5]), < 0.05 µM; in data set [2] (setting [6]) it was ≤ 1 µM; in data set [2] (setting [7]), < 0.5 µM; in data set [3] (setting [8]) it was ≤ 1 µM; in data set [3] (setting [9]), < 0.5 µM. Moreover, the half-life in data set [1] came out at 31 min.
Consider `C[C@@H](Nc1ncnc2nc(Cl)c(C3(C#N)CC3)cc12)c1cccc(C(F)(F)C(C)(C)O)c1F` [Compound 361, (R)-1-(7-chloro-4-((1-(3-(1,1-difluoro-2-hydroxy-2-methylpropyl)-2-fluorophenyl)ethyl)amino)pyrido[2,3-d]pyrimidin-6-yl)cyclopropane-1-carbonitrile], for which the concentration for half-maximal inhibition (IC50) is < 0.1 µM at SOS1 (setting [4]); < 0.05 µM at SOS1 (setting [5]); 1 to 10 µM in data set [2] (setting [6]); ≤ 1 µM in data set [3] (setting [8]); < 0.5 µM in data set [3] (setting [9]). Further, the half-life in data set [1] is > 200 min.
In the case of `C[C@@H](Nc1ncnc2nc(Cl)c(C3(C#N)CC3)cc12)c1cccc(C(F)(F)CO)c1F` [Compound 362, (R)-1-(7-chloro-4-((1-(3-(1,1-difluoro-2-hydroxyethyl)-2-fluorophenyl)ethyl)amino)pyrido[2,3-d]pyrimidin-6-yl)cyclopropane-1-carbonitrile], the half-maximal inhibitory concentration (IC50) on SOS1 (setting [4]) was < 0.1 µM; on SOS1 (setting [5]), < 0.05 µM; in data set [2] (setting [6]), 1 to 10 µM; in data set [3] (setting [8]) it was ≤ 1 µM; in data set [3] (setting [9]), < 0.5 µM. Besides, the half-life in data set [1] was 49 min.
For `C[C@@H](Nc1ncnc2nc(Cl)c(C3(C#N)CC3)cc12)c1cccc(C(F)(F)C(C)(C)O)c1` [Compound 363, (R)-1-(7-chloro-4-((1-(3-(1,1-difluoro-2-hydroxy-2-methylpropyl)phenyl)ethyl)amino)pyrido [2,3-d]pyrimidin-6-yl)cyclopropane-1-carbonitrile], the IC50 on SOS1 (setting [4]) is < 0.1 µM; on SOS1 (setting [5]), < 0.05 µM; in data set [2] (setting [6]) it was ≤ 1 µM; in data set [2] (setting [7]) it was < 0.5 µM; in data set [3] (setting [8]), ≤ 1 µM; in data set [3] (setting [9]) it was < 0.5 µM. Further, in data set [1], the half-life is > 200 min.
`C[C@@H](Nc1ncnc2nc(Cl)c(C3(C#N)CC3)cc12)c1cccc(C(F)(F)[C@@H](C)O)c1F` [Compound 365, 1-(7-chloro-4-(((R)-1-(3-((R)-1,1-difluoro-2-hydroxypropyl)-2-fluorophenyl)ethyl)amino)pyrido [2,3-d]pyrimidin-6-yl)cyclopropane-1-carbonitrile]: the IC50 is < 0.1 µM at SOS1 (setting [4]); < 0.05 µM at SOS1 (setting [5]); ≤ 1 µM in data set [2] (setting [6]); ≤ 1 µM in data set [3] (setting [8]); < 0.5 µM in data set [3] (setting [9]). Besides, the half-life in data set [1] is > 200 min.
For `C[C@@H](Nc1ncnc2nc(OC3COC3)c(C3(C#N)CC3)cc12)c1cccc(C(F)F)c1F` [Compound 400, (R)-1-(4-((1-(3-(difluoromethyl)-2-fluorophenyl)ethyl)amino)-7-(oxetan-3-yloxy)pyrido[2,3-d]pyrimidin-6-yl)cyclopropane-1-carbonitrile], the concentration for half-maximal inhibition (IC50) on SOS1 (setting [4]) is 0.1 to 1 µM; in data set [2] (setting [6]), ≤ 1 µM; in data set [2] (setting [7]), < 0.5 µM; in data set [3] (setting [8]) it was ≤ 1 µM. Further, the half-life in data set [1] was 29.4 min.

The values are drawn from patent US11648254B2 (Kumquat Biosciences Inc., priority 2021, dated 2023).
